Laboratory results published in patent publication EP0059645A1, “Method and kit for identification of beta-lactamases” (NATIONAL RESEARCH DEVELOPMENT CORPORATION, priority 1981, dated 1982).
Like-named read-outs stand apart in the source and are kept apart here. Marks after values point to notes of the source that are not given here.

Tests used:
OXA-1 [1] = target: T1, OXA-1 (Escherichia coli, UniProt P13661); assay: Competitive assay with nitrocefin (RSAI); assay type: biochemical, E. coli 1527E; parameters: the beta-lactamase has to be extracted from the cells for the purpose of the present invention; made in house; host or cells: E. coli 1527E according to the earlier reading (crude cell extract)
[2] = target: T2, Chromosomal, induced beta-lactamase enzyme (Pseudomonas aeruginosa, UniProt P24735); assay: Competitive assay with nitrocefin (RSAI); assay type: biochemical, Ps.aerug. 1937E + ampicillin
T2 construct: Normally, therefore, the beta-lactamase has to be extracted from the cells for the purpose of the present invention; endogenous in cells; host or cells: Pseudomonas aeruginosa 1937E grown with ampicillin

TEM-1 = TEM-1 (Escherichia coli, UniProt P62593); assay: Competitive assay with nitrocefin (RSAI); assay type: biochemical, E. coli 2136E; parameters: the beta-lactamase has to be extracted from the cells for the purpose of the present invention; made in house; host or cells: E. coli 2136E (plasmid-bearing strain; crude cell extract)
K17 = assay: Competitive assay with nitrocefin (RSAI); assay type: biochemical, Klebsiella 17
[3] = target: T3, Chromosomal, hyper-induced beta-lactamase enzyme (Escherichia coli, UniProt P00811); assay: Competitive assay with nitrocefin (RSAI); assay type: biochemical, E. coli SNU35; parameters: Normally, therefore, the beta-lactamase has to be extracted from the cells for the purpose of the present invention; endogenous in cells; host or cells: E. coli SNU 35 (artificially produced strain)
PSE-3 = assay: Competitive assay with nitrocefin (RSAI); assay type: biochemical, Ps.aerug. 1920E
TEM-2 = TEM-2 (Escherichia coli, UniProt P62593, Q37K); assay: Competitive assay with nitrocefin (RSAI); assay type: biochemical, E. coli 1725E
TEM-2 beta-lactamase = TEM-2 beta-lactamase (Escherichia coli, UniProt P62593, Q37K); assay type: biochemical, E. coli C9 RP4
[4] = target: T4, Chromosomal, constitutive beta-lactamase enzyme (Enterobacter cloacae, UniProt P05364); assay: Competitive assay with nitrocefin (RSAI); assay type: biochemical, E. cloacae
T4 construct: Normally, therefore, the beta-lactamase has to be extracted from the cells for the purpose of the present invention; endogenous in cells

OXA-3 = OXA-3 (Pseudomonas aeruginosa, UniProt Q51429); assay: Competitive assay with nitrocefin (RSAI); assay type: biochemical, E. coli R57B; parameters: Normally, therefore, the beta-lactamase has to be extracted from the cells for the purpose of the present invention; endogenous in cells
PSE-2 = PSE-2 (Pseudomonas aeruginosa, UniProt P14489); assay: Competitive assay with nitrocefin (RSAI); assay type: biochemical, Ps.aerug. 1973E; parameters: Normally, therefore, the beta-lactamase has to be extracted from the cells for the purpose of the present invention; endogenous in cells
SHV-1 = SHV-1 (Escherichia coli, UniProt P0AD63); assay: Competitive assay with nitrocefin (RSAI); assay type: biochemical, E. coli 2008E; parameters: the beta-lactamase has to be extracted from the cells for the purpose of the present invention; made in house; host or cells: E. coli 2008E (crude cell extract)
PSE-1 = PSE-1 (Pseudomonas aeruginosa, UniProt Q03170); assay: Competitive assay with nitrocefin (RSAI); assay type: biochemical, Ps.aerug. 1937E; parameters: Normally, therefore, the beta-lactamase has to be extracted from the cells for the purpose of the present invention; endogenous in cells
OXA-2 [5] = target: T5, OXA-2 (Escherichia coli, UniProt P0A1V9); assay: Competitive assay with nitrocefin (RSAI); assay type: biochemical, E. coli R46; parameters: the beta-lactamase has to be extracted from the cells for the purpose of the present invention; made in house; host or cells: E. coli carrying R46 according to the earlier reading (crude cell extract)
PSE-4 = PSE-4 (Pseudomonas aeruginosa, UniProt P16897); assay: Competitive assay with nitrocefin (RSAI); assay type: biochemical, Ps.aerug. 1559E; parameters: Normally, therefore, the beta-lactamase has to be extracted from the cells for the purpose of the present invention; endogenous in cells
HMS-1 = assay: Competitive assay with nitrocefin (RSAI); assay type: biochemical, E. coli 1946
K10317 = assay: Competitive assay with nitrocefin (RSAI); assay type: biochemical, K.aerog. 10317
K1073 = assay: Competitive assay with nitrocefin (RSAI); assay type: biochemical, Klebsiella 1073
[6] = test system: "unknown" (unidentified) beta-lactamase; assay: Competitive assay with nitrocefin (RSAI) on an unidentified beta-lactamase; conditions: extract by the method of Example 6, assay as in Example 1; * = showed irreversible inhibition
OXA-2 [7] = target: T5, OXA-2; assay: Hydrolysis of nitrocefin by enzyme (Michaelis constant); conditions: read-out: Km (Nitrocefin); enzyme No. 6
OXA-1 [8] = target: T1, OXA-1; assay: Cleavage of chromogenic substrate by enzyme (PADAC example); conditions: PADAC monitored at 570 nm; same enzyme preparation for nitrocefin
[9] = target: T3, Chromosomal, hyper-induced beta-lactamase enzyme; assay: Hydrolysis of nitrocefin by enzyme (Michaelis constant); conditions: read-out: Km (Nitrocefin); enzyme No. 9
[10] = test system: O=C(Cc1cccs1)N[C@@H]1C(=O)N2C(C(=O)O)=C(C=Cc3ccc([N+](=O)[O-])cc3[N+](=O)[O-])CS[C@H]12; assay: purified protein, by the assay type; conditions: pH 7.0; 37.0 °C
[11] = test system: O=C(Cc1cccs1)N[C@@H]1C(=O)N2C(C(=O)O)=C(C=Cc3ccc([N+](=O)[O-])cc3[N+](=O)[O-])CS[C@H]12; assay: purified protein, by the assay type; conditions: pH 7.0; 37.0 °C; remark: listed apart in the source

Compound: CC1(C)S[C@@H]2[C@H](NC(=O)[C@H](N)c3ccccc3)C(=O)N2[C@H]1C(=O)O [Ampi-cillin, ampicillin]
- RSAI (OXA-1 [1]): 4
- RSAI [2]: 0.12
- RSAI (TEM-1): 4
- RSAI (K17): 2.9
- RSAI [3]: 0.03*
- RSAI (PSE-3): 1.7
- RSAI (TEM-2): 2.6
- RSAI (TEM-2 beta-lactamase; without pre-incubation, nitrocefin 50 micrograms/ml, after 4.5 minutes, 37°C): 1.3
- RSAI [4]: 0.02
- RSAI (OXA-3): 0.2
- RSAI (PSE-2): 0.85
- RSAI (SHV-1): 3
- RSAI (PSE-1): 0.4
- RSAI (OXA-2 [5]): 10
- RSAI (PSE-4): 2.7
- RSAI (HMS-1): 0.5
- RSAI (K10317): 9.4
- RSAI (K1073): 6.7

Compound: Cc1onc(-c2ccccc2Cl)c1C(=O)N[C@@H]1C(=O)N2[C@@H]1SC(C)(C)[C@@H]2C(=O)O [Cloxacillin]
- RSAI (OXA-1 [1]): 0.6
- RSAI [2]: 0.00017
- RSAI (TEM-1): 0.75
- RSAI (K17): 14
- RSAI [3]: 0.0000016*
- RSAI (PSE-3): 0.24
- RSAI (TEM-2): 0.5
- nature of the binding to the enzyme (TEM-2 beta-lactamase; from kinetics of nitrocefin cleavage): does not undergo irreversible binding
- RSAI [4]: 0.00004
- RSAI (OXA-3): 0.01
- RSAI (PSE-2): 4.5
- RSAI (SHV-1): 2
- RSAI (PSE-1): 2
- RSAI (OXA-2 [5]): 30
- RSAI (PSE-4): 3.3
- RSAI (HMS-1): 0.02
- RSAI (K10317): 3.7*
- RSAI (K1073): 4*

Compound: CO[C@@]1(NC(=O)C(C(=O)O)c2ccc(O)cc2)C(=O)N2C(C(=O)O)=C(CSc3nnnn3C)CO[C@@H]21 (stereo partly drawn) [Moxalactam]
- RSAI (OXA-1 [1]): 4*
- RSAI [2]: 0.006*
- RSAI ([2]; listed as moxalactam): 0.006
- RSAI (TEM-1): 40*
- RSAI (K17): 3.5
- RSAI [3]: 0.002*
- RSAI ([3]; listed as moxalactam): 0.002
- RSAI (PSE-3): 7
- RSAI (TEM-2): 60*
- RSAI [4]: 0.0001*
- RSAI ([4]; listed as moxalactam): 0.0001
- RSAI (OXA-3): 1*
- RSAI (PSE-2): 8.2
- RSAI (SHV-1): 280
- RSAI (PSE-1): 3.5
- RSAI [6]: 0.0001
- RSAI (OXA-2 [5]): 3*
- RSAI (PSE-4): 4.3
- RSAI (HMS-1): 0.3*
- RSAI (K10317): 60*
- RSAI (K1073): >80

Compound: O=C(Cc1cccs1)N[C@@H]1C(=O)N2C(C(=O)O)=C(C=Cc3ccc([N+](=O)[O-])cc3[N+](=O)[O-])CS[C@H]12 [Nitrocefin, 3-(2,4-dinitrostyryl)-(6R,7R)-7-(2-thienylacetamido)ceph-3-em-4-carboxylic acid]
- Km (OXA-2 [7]): < 9.68 µM
- cleavage of chromogenic substrate by the enzyme (OXA-1 [8]): cleaved
- Km [9]: 34.8 µM

Compound: (Escherichia coli)
- Km [10]: 9 µg/mL
- Km [11]: 16 µg/mL

Compound: (Pseudomonas aeruginosa)
- Km [11]: 28 µg/mL
